Data: ChEMBL document CHEMBL3352542, “Synthesis, biological evaluation and molecular modeling study of 2-(1,3,4-thiadiazolyl-thio and 4-methyl-thiazolyl-thio)-quinazolin-4-ones as a new class of DHFR inhibitors” (Bioorg Med Chem Lett, 2014)
Activity calls are given as the source filed them. No cut-off for these calls is given here.

Columns and labels:
Candida albicans [1] = test: Antimicrobial activity against Candida albicans assessed as inhibition zone at 200 ug/disk after 24 hrs by disc-diffusion method; format: functional; settings: read-out: IZ
Staphylococcus aureus [2] = test: Antimicrobial activity against Staphylococcus aureus assessed as inhibition of visible growth after 24 hrs by disc-diffusion method; format: functional, organism-based
Candida albicans [3] = test: Antimicrobial activity against Candida albicans assessed as inhibition of visible growth after 24 hrs by disc-diffusion method; format: functional, organism-based
Bacillus subtilis [4] = test: Antimicrobial activity against Bacillus subtilis assessed as inhibition of visible growth after 24 hrs by disc-diffusion method; format: functional, organism-based
Bacillus subtilis [5] = test: Antimicrobial activity against Bacillus subtilis assessed as inhibition zone at 200 ug/disk after 24 hrs by disc-diffusion method; format: functional; settings: read-out: IZ
Escherichia coli [6] = test: Antimicrobial activity against Escherichia coli assessed as inhibition zone at 200 ug/disk after 24 hrs by disc-diffusion method; format: functional; settings: read-out: IZ
Pseudomonas aeruginosa [7] = test: Antimicrobial activity against Pseudomonas aeruginosa assessed as inhibition zone at 200 ug/disk after 24 hrs by disc-diffusion method; format: functional; settings: read-out: IZ
Staphylococcus aureus [8] = test: Antimicrobial activity against Staphylococcus aureus assessed as inhibition zone at 200 ug/disk after 24 hrs by disc-diffusion method; format: functional; settings: read-out: IZ
Pseudomonas aeruginosa [9] = test: Antimicrobial activity against Pseudomonas aeruginosa assessed as inhibition of visible growth after 24 hrs by disc-diffusion method; format: functional, organism-based
Escherichia coli [10] = test: Antimicrobial activity against Escherichia coli assessed as inhibition of visible growth after 24 hrs by disc-diffusion method; format: functional, organism-based

## CC(=O)NS(=O)(=O)c1ccc(N)cc1 [SULFACETAMIDE]
Candida albicans [1]
  zone of inhibition at 200 µg/disc: 25 mm
Staphylococcus aureus [2]
  Activity: Active
Candida albicans [3]
  Activity: Active
Bacillus subtilis [4]
  Activity: Active
Bacillus subtilis [5]
  zone of inhibition at 200 µg/disc: 22 mm
Escherichia coli [6]
  zone of inhibition at 200 µg/disc: 18 mm
Pseudomonas aeruginosa [7]
  zone of inhibition at 200 µg/disc: 28 mm
Staphylococcus aureus [8]
  zone of inhibition at 200 µg/disc: 20 mm
Pseudomonas aeruginosa [9]
  Activity: Active
Escherichia coli [10]
  Activity: Active
